Source: ChEMBL document CHEMBL1122802, “Pyrido[3',2':4,5]thieno[3,2-d]-N-triazines: a new series of orally active antiallergic agents” (J Med Chem, 1984)

What was measured:
[1] = tested on: Rattus norvegicus; assay: Percent inhibition of antigen induced release of histamine (AIR) in vitro from rat peritoneal mast cells (RMC) […].; type: functional
[2] = tested on: Rattus norvegicus; assay: Inhibition of passive cutaneous anaphylaxis (PCA) in the rat at 25 mg /kg.(orally); type: functional; settings: po
[3] = organism: Rattus norvegicus; assay: Evaluated on antigen induced release of histamine (AIR) in vitro from rat peritoneal mast cells (RMC) at multiple dose levels; type: functional, cell-based; settings: Mast cell, read-out: I 50
[4] = organism: Rattus norvegicus; assay: Effective dose required for inhibition of passive cutaneous anaphylaxis (PCA) in the rat at multiple dose levels; type: functional
[5] = tested on: Rattus norvegicus; assay: Percent inhibition of antigen induced release of histamine (AIR) in vitro from rat peritoneal mast cells (RMC) […]; type: functional
[6] = tested on: Rattus norvegicus; assay: Inhibition of passive cutaneous anaphylaxis (PCA) in the rat at 30 mg /kg.(orally); type: functional; settings: po

Row | Compound | IC50 [3] | I [1] | inhibition in vivo at 25 mg/kg [2] | ED50 [4] | I [5] | inhibition in vivo at 30 mg/kg [6]
1 | COC(=O)NNc1nnnc2c1sc1nc(C)ccc12 | – | 21% | 5% | – | – | –
2 | Cc1ccc2c(n1)sc1cnnnc12 | 29 µM | – | 93% | 1.5 mg/kg | – | –
3 | CSc1nnnc2c1sc1nc(C)ccc12 | – | – | – | – | 4% | –
4 | CCOCOc1nnnc2c1sc1nc(C)ccc12 | 6 µM | – | 22% | – | – | –
5 | CCOc1nnnc2c1sc1nc(C)ccc12 | – | – | 52% | 27 mg/kg | 18% | –

Second part, led by results:

Row | IC50 [3] | Compound | I [1] | inhibition in vivo at 25 mg/kg [2] | ED50 [4] | I [5] | inhibition in vivo at 30 mg/kg [6]
6 | 11 µM | CNc1nnnc2c1sc1nc(C)ccc12 | – | 32% | – | – | –
7 | 80 µM | Cc1cc(C)c2c(n1)sc1c(O)nnnc12 | – | 70% | 3.6 mg/kg | – | –
8 | 0.25 µM | Cc1ccc2c(n1)sc1c(O)nnnc12 | – | 88% | 5.2 mg/kg | – | –
9 | 1.7 µM | Cc1ccc2c(n1)sc1c(N)nnnc12 | – | 38% | – | – | –
10 | 0.05 µM | Oc1nnnc2c1sc1nc(-c3ccccc3)ccc12 | – | – | 3 mg/kg | – | 68%
11 | 0.1 µM | Cc1ccc2c(n1)sc1c(S)nnnc12 | – | – | – | – | –
